Laboratory results: paper PMC9410537, “Discovery of Ircinianin Lactones B and C—Two New Cyclic Sesterterpenes from the Marine Sponge Ircinia wistarii” (Marine Drugs, 2022)
Like-named read-outs stand apart in the source and are kept apart here.

Experiments:
[1] = test system: T. cruzi Tulahuen strain C2C4; assay: Activity against T. cruzi in L-6 cells (beta-galactosidase/CPRG); type: cell-based, Trypanosoma cruzi; conditions: in vitro, Tulahuen C2C4 in L-6 cells, Table 2 values are means of two independent assays
Experimental: Activity against T. cruzi. Rat skeletal myoblasts (L-6 cells) were seeded in 96-well microtiter plates at 2000 cells/well in 100 μL RPMI 1640 medium with 10% FBS and 2 mM L-glutamine. After 24 h, the media in each well was removed and replaced with 100 μL of fresh media containing 5000 trypomastigote forms of T. cruzi Tulahuen strain C2C4 containing the β-galactosidase (lacZ) gene. After 48 h, the media was removed from the wells again, and this time, replaced by 100 μL fresh medium with or without 1 from 100 to 0.002 μg/mL. After 96 h of incubation, the plates were inspected under an inverted microscope to assess growth and sterility of the controls. Then, the substrate CPRG/Nonidet (50 μL) was added to all wells. A color reaction developed within 2–6 h and could be read photometrically at 540 nm.

[2] = test system: set of clinically relevant bacteria (ESKAPE panel and one mycobacterial strain); assay: Antibacterial assay (MIC), whole strain panel; type: cell-based; conditions: highest concentration tested
Experimental: (§1) The minimal inhibitory concentration (MIC) was determined as described previously in cation-adjusted Mueller-Hinton medium according to the standards and guidelines of the Clinical and Laboratory Standards Institute. […] After an overnight incubation at 37 °C, the MIC was read as the lowest compound concentration preventing visible bacterial growth. The strain panel included representative species of nosocomial pathogens, known as “[…]” bacteria. Specifically, the following strains were used: Enterococcus faecium BM 4147-1, Staphylococcus aureus ATCC 29213, Klebsiella pneumoniae ATCC 12657, Acinetobacter baumannii 09987, Pseudomonas aeruginosa ATCC 27853, and Enterobacter aerogenes ATCC 13048. Bacillus subtilis 168, Escherichia coli ATCC 25922, and Mycobacterium smegmatis mc^2 155 ATCC 700084 were used as further reference strains.

M. smegmatis mc2 155 = assay: Antibacterial assay (MIC); type: cell-based, Mycobacterium smegmatis; conditions: Mycolicibacterium smegmatis, MC2155
Experimental: as §1

[3] = test system: Human Cytomegalovirus (HCMV); type: cell-based; conditions: up to the highest concentration tested (10 µM), HFF cells
Wolbachia endosymbionts = assay: Anthelmintic assay, depletion of Wolbachia endosymbionts from cultured adult female worms; type: cell-based, Litomosoides sigmodontis; conditions: 0.1, 1 and 10 µM, two weeks of in vitro culture; not statistically significant
Experimental: To investigate the activity against filarial nematodes, adult female worms of the rodent filarial nematode Litomosoides sigmodontis were cultured in vitro with a 0.1, 1 and 10 µM concentration of 1. Motility of adult filariae as well as reduction of Wolbachia endosymbionts were assessed. […] L. sigmodontis adult female worms were isolated from chronically infected cotton rats (UKB). Three L. sigmodontis female adult worms per condition were cultured in supplemented Minimal Essential Medium (MEM) on a LLCMK2 cell layer, as previously described. […] Candidate 1 was tested at concentrations of 0.1, 1 and 10 µM. Filarial viability was assessed by determining the mean worm motility scores on a scale of 0 (immotile) to 2 (maximum motility) before drug addition and at 1 h, 1 day, 2 day, 4 day, 6 day, 8 day, 10 day, 12 day and 14 day post drug addition. The drug-containing media was renewed every other day. Depletion of Wolbachia endosymbionts from female adult worms was analyzed after two weeks of in vitro culture and determined as previously described using primers for the single copy gene Wolbachia ftsZ.

[4] = test system: panel comprising 60 human cancer cell lines; assay: One dose NCI-60 cell-line cytotoxicity screen; type: cell-based; conditions: single high dose
Text: One dose NCI-60 panel: 1 was selected for the anticancer drug screening service as a part of the Developmental Therapeutics Program at the National Cancer Institute (NCI). In vitro tumor growth inhibitory effects were explored using a standard protocol with a single high dose test against a panel comprising 60 human cancer cell lines. It is noteworthy to mention that we had to remove the results of the NCI-H23 cell line, since NCI informed us that its cell line’s identity was not authenticated during the time frame in which the screening of 1 was conducted.

[5] = test system: L-6 cells (rat skeletal myoblasts); assay: In vitro cytotoxicity assay with L-6 cells (resazurin); type: cell-based; conditions: L6, L-6 cells, read-out: IC50 L6
Experimental: In vitro cytotoxicity assay with L-6 cells. Assays were performed in 96-well microtiter plates, each well containing 100 μL of RPMI 1640 medium supplemented with 1% L-glutamine (200 mM) and 10% fetal bovine serum, and 4000 L-6 cells (a primary cell line derived from rat skeletal myoblasts). Serial drug dilutions ranged from 100 to 0.002 μg/mL. After 70 h of incubation, the plates were inspected under an inverted microscope to assure growth of the controls and sterile conditions. 10 μL of resazurin was then added to each well and the plates were incubated for another 2 h. […] Podophyllotoxin (Sigma P4405) was used as control (IC50 0.011 ± 0.005 μM).

[6] = test system: HeLa human cervical carcinoma cell line; assay: In vitro cytotoxicity assay with HeLa cells (resazurin); type: cell-based
Experimental: In vitro cytotoxicity assay with HeLa cells: The cytotoxicity test against the HeLa human cervical carcinoma cell line was performed as described previously in RPMI cell culture medium supplemented with 10% fetal bovine serum using the 7-hydroxy-3H-phenoxazin-3-one-10-oxide (resazurin) assay. Briefly, a 2-fold serial dilution of the test compounds was prepared in duplicates in a microtiter plate and seeded with trypsinized HeLa cells to a final cell concentration of 1 × 10^4 cells per well. After 24 h of incubation at 37 °C, with 5% CO2 and 95% relative humidity, resazurin was added at a final concentration of 200 μM, and cells were again incubated overnight. Cell viability was assessed by determining the reduction of resazurin to the fluorescent resorufin. Fluorescence was measured in a TECAN Infinite M200 reader at an excitation wavelength of 560 nm and an emission wavelength of 600 nm in relation to an untreated control.

[7] = test system: Trypanosoma brucei rhodesiense STIB900; assay: Activity against Trypanosoma brucei rhodesiense STIB900 (resazurin); conditions: Table 2 values are means of two independent assays
Experimental: Activity against Trypanosoma brucei rhodesiense STIB900. […] Minimum Essential Medium (50 µL) supplemented with 25 mM HEPES, 1 g/L additional glucose, 1% MEM non-essential amino acids (100×), 0.2 mM 2-mercaptoethanol, 1 mM Na-pyruvate and 15% heat inactivated horse serum was added to each well of a 96-well microtiter plate. Serial drug dilutions ranging from 100 to 0.002 μg/mL were prepared. Then, 4 × 10^3 bloodstream forms of T. b. rhodesiense STIB 900 in 50 µL were added to each well and the plate was incubated at 37 °C under a 5% CO2 atmosphere for 70 h. 10 µL of a resazurin solution (resazurin, 12.5 mg in 100 mL double-distilled water) was then added to each well and incubation continued for a further 2–4 h [70]. The plates were read with a Spectramax Gemini XS microplate fluorometer (Molecular Devices Cooperation, Sunnyvale, CA, USA) using an excitation wavelength of 536 nm and an emission wavelength of 588 nm. Data were analyzed using Softmax Pro (Molecular Devices Cooperation, Sunnyvale, CA, USA), which calculated IC50 values by linear regression [71] and 4-parameter logistic regression from the sigmoidal dose inhibition curves.

Question: With `CC1=C[C@@H](/C=C(\C)CCCc2ccoc2)[C@]2(OC(=O)C(C)=C2O)[C@@H]2[C@@H](C)CC[C@@H]12` [compound 1, Ircinianin] as the compound, how does the IC50 [1] read?
Answer: Its IC50 is over 80 µM.

Question: And the IC50 ([1]; listed as Ircinianin (1))?
Answer: The IC50 was 191 µM.

Question: What about the MIC [2] of the same compound?
Answer: The MIC was over 32 µg/mL.

Question: What about the MIC (M. smegmatis mc2 155) of the same compound?
Answer: The MIC was over 32 µg/mL.

Question: What about the “Inhibition of HCMV infection” value [3] of the same compound?
Answer: The value was “no inhibition”.

Question: And the “Wolbachia reduction in comparison to media controls” value (Wolbachia endosymbionts)?
Answer: Its value is under 32%.

Question: What about the “Activity in NCI 60 cell-line cytotoxicity screen” value [4] of the same compound?
Answer: Its value is “no activity”.

Question: What about the IC50 ([5]; 70 h incubation) of the same compound?
Answer: Its IC50 is 150 µM.

Question: What about the IC50 ([5]; single cell line assays (Table S7)) of the same compound?
Answer: The IC50 was 59.5 µg/mL.

Question: What about the IC50 [6] of the same compound?
Answer: The IC50 was over 64 µg/mL.

Question: What about the IC50 ([7]; Trypanosoma brucei, RHODESIENSE|STIB900, read-out: IC50 T. brucei rhodesiense, in vitro, STIB900 bloodstream forms) of the same compound?
Answer: The IC50 was over 80 µM.

Question: And the IC50 ([7]; read-out: IC50 T. brucei rhodesiense, in vitro, STIB900 bloodstream forms, listed as Ircinianin (1))?
Answer: The IC50 was 82.8 µM.
